In ChEMBL document CHEMBL1140044, “Structure-activity relationship study on anti-HIV 6-desfluoroquinolones” (J Med Chem, 2008):
In brackets after ≈: the same amount, converted by molar mass. Activity calls are given as the source filed them. The rule behind the calls is not given here.

Tests used:
[1] = Cytotoxicity against mock-infected human MT4 cells after 5 days by MTT assay; assay type: cell-based
[2] = molecular target: T1, Protein Tat (Human immunodeficiency virus type 1 group M subtype B (isolate HXB2)(HIV-1)) (UniProt P04608); experiment: Inhibition of HIV1 Tat-mediated LTR promoter transactivation in Tat/GFP plasmid expressed in Jurkat cells assessed as GFP gene expression by FACS analysis; assay type: cell-based; details: Human immunodeficiency virus 1
T1 sequence (whole entry): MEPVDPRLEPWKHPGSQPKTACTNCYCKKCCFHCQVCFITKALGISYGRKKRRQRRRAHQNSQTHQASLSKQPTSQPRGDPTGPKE

[3] = test system: Human immunodeficiency virus 2; experiment: Antiviral activity against HIV2 ROD in MT4 cells assessed as inhibition of virus-induced cytopathogenicity by MTT assay; assay type: functional, organism-based; details: Human immunodeficiency virus 2, ROD
[4] = test system: Human immunodeficiency virus 1; experiment: Antiviral activity against HIV1 3B in CEM cells assessed as inhibition of virus-induced syncytium formation after 4 days by microscopy; assay type: functional, organism-based; details: Human immunodeficiency virus 1, 3B, CCRF-CEM, 96 h
[5] = Selectivity index, ratio of CC50 for human MT4 cells to EC50 for HIV1 3B; assay type: toxicity, cell-based; details: read-out: Ratio CC50/EC50
[6] = Selectivity index, ratio of CC50 for human MT4 cells to EC50 for HIV2 ROD; assay type: toxicity, cell-based; details: read-out: Ratio CC50/EC50
[7] = Selectivity index, ratio of CC50 for human CEM cells to EC50 for HIV1 3B; assay type: toxicity, cell-based, CCRF-CEM; details: read-out: Ratio CC50/EC50
[8] = Cytotoxicity against mock-infected human CEM cells by Coulter counter; assay type: cell-based; details: mock-infected CEM (CCRF-CEM) cells
[9] = Selectivity index, ratio of CC50 for human CEM cells to EC50 for HIV2 ROD; assay type: toxicity, cell-based, CCRF-CEM; details: read-out: Ratio CC50/EC50
[10] = test system: Human immunodeficiency virus 2; experiment: Antiviral activity against HIV2 ROD in CEM cells assessed as inhibition of virus-induced syncytium formation after 4 days by microscopy; assay type: functional, organism-based; details: Human immunodeficiency virus 2, ROD, CCRF-CEM, 96 h
[11] = test system: Human immunodeficiency virus 1; experiment: Antiviral activity against HIV1 3B in MT4 cells assessed as inhibition of virus-induced cytopathogenicity by MTT assay; assay type: functional, organism-based; details: Human immunodeficiency virus 1, 3B
[12] = Cytotoxicity against mock-infected human PBMC cells by trypan blue exclusion assay; assay type: cell-based
[13] = test system: Human immunodeficiency virus 1; experiment: Antiviral activity against HIV1 3B in MT4 cells assessed as virus p24 antigen production administered at 10 hrs post infection by ELISA; assay type: functional, organism-based
[14] = test system: Human immunodeficiency virus 1; experiment: Antiviral activity against HIV1 3B in PBMC assessed as inhibition of p24 production after 7 days by ELISA; assay type: functional, organism-based; details: Human immunodeficiency virus 1, 3B, 168 h
[15] = Selectivity index, ratio of CC50 for human PBMC cells to EC50 for HIV1 3B; assay type: toxicity, cell-based; details: read-out: Ratio CC50/EC50
[16] = test system: Human immunodeficiency virus 1; experiment: Inhibition of HIV1 3B production in chronically infected HUT78 cells assessed as virus p24 antigen production after 44 hrs by ELISA; assay type: functional, organism-based

Activity [2] | EC50 [4] [µg/mL] | EC50 [10] [µg/mL] | EC50 [14] [µg/mL] | Compound | CC50 at 120 h [1] [µg/mL] | EC50 [3] [µg/mL] | selectivity ratio [5] | selectivity ratio [6] | selectivity ratio [7] | CC50 [8] [µg/mL] | selectivity ratio [9] | EC50 [11] [µg/mL] | CC50 [12] [µg/mL] | Activity [13] | selectivity ratio [15] | Activity [16]
 | 0.051 (≈ 0.14 µM) | 0.09 (≈ 0.246 µM) | 0.094 (≈ 0.257 µM) | Nc1cc2c(=O)c(C(=O)O)c[nH]c2cc1N1CCN(c2ccccn2)CC1 | 2.16 (≈ 5.91 µM) | 0.16 (≈ 0.438 µM) | 5 | 14 | 93 | 4.75 (≈ 13 µM) | 53 | 0.45 (≈ 1.23 µM) | 1.28 (≈ 3.5 µM) |  | 13 | 
 | 0.036 (≈ 0.0838 µM) | 0.075 (≈ 0.175 µM) |  | Cn1cc(C(=O)O)c(=O)c2cc(N)c(N3CCN(c4ccc5ccccc5n4)CC3)cc21 | 0.21 (≈ 0.489 µM) | 0.022 (≈ 0.0512 µM) | 6 | 10 | 115 | 4.15 (≈ 9.66 µM) | 55 | 0.035 (≈ 0.0815 µM) |  |  |  | 
 | 2.6 (≈ 7.02 µM) | 8 (≈ 21.6 µM) |  | Cn1cc(C(=O)O)c(=O)c2ccc(N3CCN(c4nccs4)CC3)cc21 | > 125 | 12.7 (≈ 34.3 µM) | > 12 | > 10 | ≥ 38 | ≥ 100 | ≥ 12 | 10 (≈ 27.1 µM) |  |  |  | 
 | 0.05 (≈ 0.116 µM) | 0.28 (≈ 0.65 µM) |  | Cn1cc(C(=O)O)c(=O)c2cc(N)c(N3CCN(c4cnc5ccccc5n4)CC3)cc21 | 3.2 (≈ 7.43 µM) | 0.19 (≈ 0.441 µM) | 18 | 17 | > 80 | > 4 | > 14 | 0.18 (≈ 0.418 µM) |  |  |  | 
 | 0.7 (≈ 1.88 µM) | 0.6 (≈ 1.62 µM) | 0.21 (≈ 0.565 µM) | Nc1cc2c(=O)c(C(=O)O)c[nH]c2cc1N1CCN(c2nccs2)CC1 | 7.61 (≈ 20.5 µM) | 1.92 (≈ 5.17 µM) | 7 | 5 | 23 | 15.8 (≈ 42.5 µM) | 26 | 1.21 (≈ 3.26 µM) | 2.02 (≈ 5.44 µM) |  | 10 | 

More lines, now with the values behind:

Compound | Activity [2] | EC50 [4] [µg/mL] | EC50 [10] [µg/mL] | EC50 [14] [µg/mL] | CC50 at 120 h [1] [µg/mL] | EC50 [3] [µg/mL] | selectivity ratio [5] | selectivity ratio [6] | selectivity ratio [7] | CC50 [8] [µg/mL] | selectivity ratio [9] | EC50 [11] [µg/mL] | CC50 [12] [µg/mL] | Activity [13] | selectivity ratio [15] | Activity [16]
Cn1cc(C(=O)O)c(=O)c2ccc(N3CCN(c4nc5ccccc5o4)CC3)cc21 | Dose-dependent effect | 3.35 (≈ 8.28 µM) | 14 (≈ 34.6 µM) |  | > 125 | 11.9 (≈ 29.3 µM) | > 22 | > 11 | > 30 | > 100 | > 7 | 5.76 (≈ 14.2 µM) |  |  |  | 
Cc1cccc(Sc2cc3c(cc2N)c(=O)c(C(=O)O)cn3C)c1 |  |  |  |  | > 2 | > 2 | < 1 | < 1 |  |  |  | > 2 |  |  |  | 
Cn1cc(C(=O)O)c(=O)c2ccc(N3CCN(c4nc5ccccc5s4)CC3)cc21 | Dose-dependent effect | 0.024 (≈ 0.0571 µM) | 0.065 (≈ 0.155 µM) | 0.15 (≈ 0.357 µM) | 0.44 (≈ 1.05 µM) | 0.04 (≈ 0.0951 µM) | 14.7 | 5.5 | 281 | 6.74 (≈ 16 µM) | 104 | 0.03 (≈ 0.0713 µM) | 0.65 (≈ 1.55 µM) | Active | 4 | Active
Nc1cc2c(=O)c(C(=O)O)c[nH]c2cc1N1CCN(c2cccc(C(F)(F)F)c2)CC1 |  |  |  |  | 1.64 (≈ 3.79 µM) | 0.46 (≈ 1.06 µM) | 4 | 4 |  |  |  | 0.38 (≈ 0.879 µM) |  |  |  | 
Cn1ccc(=O)c2cc(N)c(N3CCN(c4ccccn4)CC3)cc21 |  |  |  |  | 105 (≈ 313 µM) | > 104 | < 1 | < 1 |  |  |  | > 105 |  |  |  | 
Cn1ccc(=O)c2cc(N)c(N3CCN(c4nccs4)CC3)cc21 |  |  |  |  | 89.5 (≈ 262 µM) | > 89.5 | < 1 | < 1 |  |  |  | > 89.5 |  |  |  | 
Cn1cc(C(=O)O)c(=O)c2ccc(N3CCN(c4cccc(C(F)(F)F)c4)CC3)cc21 |  | 0.13 (≈ 0.301 µM) | 0.28 (≈ 0.649 µM) | 0.28 (≈ 0.649 µM) | 2.61 (≈ 6.05 µM) | 0.13 (≈ 0.301 µM) | 38 | 21 | 9 | 1.2 (≈ 2.78 µM) | 4 | 0.07 (≈ 0.162 µM) | 0.69 (≈ 1.6 µM) |  | 2 | Active
CO/N=C(\C)c1cn(C)c2cc(N3CCN(c4ccccn4)CC3)c(N)cc2c1=O |  |  |  |  | 92.7 (≈ 228 µM) | > 92.6 | < 1 | < 1 |  |  |  | > 92.6 |  |  |  | 
CC(=O)c1cn(C)c2cc(N3CCN(c4ccccn4)CC3)c(N)cc2c1=O |  |  |  |  | > 125 | > 125 |  |  |  |  |  | > 125 |  |  |  | 
C/C(=N\O)c1cn(C)c2cc(N3CCN(c4ccccn4)CC3)c(N)cc2c1=O |  |  |  |  | > 125 | > 125 |  |  |  |  |  | > 125 |  |  |  | 
